According to PubChem BioAssay AID248 (DTP/NCI, 2004):
Values joined by “and” are separate entries in the source; they are usually repeats but may differ in a detail not shown here. Equal entries are not always repeated. Inconclusive results and toxic doses are left out. Rule as the data show it: active = T/C of 150% or more; inactive = T/C below 125%.

Tested on: L1210 leukemia ip in BDF1 mice, survival T/C
Test: NCI In Vivo Anticancer Drug Screen. Data for tumor model L1210 Leukemia (intraperitoneal) in B6D2F1 (BDF1) mice
Settings: endpoint: mean survival time, higher = longer survival
In short: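 Value reflects the ratio of survival in compound-treated mice to survival in vehicle-treated controls, with both groups carrying the same transplanted tumor.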

[1] = dose: 100.0 mg/kg/injection, schedule: Q01DX001 (ip), vehicle: saline
[2] = dose: 200.0 mg/kg/injection, schedule: Q01DX001 (ip), vehicle: saline
[3] = dose: 400.0 mg/kg/injection, schedule: Q01DX001 (ip), vehicle: saline
[4] = dose: 50.0 mg/kg/injection, schedule: Q01DX009 (ip), vehicle: saline with Tween-80
[5] = dose: 100.0 mg/kg/injection, schedule: Q04DX002 (ip), vehicle: Klucel (hydroxypropylcellulose) (HPC)
[6] = dose: 200.0 mg/kg/injection, schedule: Q04DX002 (ip), vehicle: Klucel (hydroxypropylcellulose) (HPC)
[7] = dose: 400.0 mg/kg/injection, schedule: Q04DX002 (ip), vehicle: Klucel (hydroxypropylcellulose) (HPC)
[8] = dose: 100.0 mg/kg/injection, schedule: Q04DX003 (ip), vehicle: Klucel (hydroxypropylcellulose) (HPC)
[9] = dose: 200.0 mg/kg/injection, schedule: Q04DX003 (ip), vehicle: Klucel (hydroxypropylcellulose) (HPC)
[10] = dose: 400.0 mg/kg/injection, schedule: Q04DX003 (ip), vehicle: Klucel (hydroxypropylcellulose) (HPC)
[11] = dose: 100.0 mg/kg/injection, schedule: Q04DX003 (ip), vehicle: saline with Tween-80
[12] = dose: 200.0 mg/kg/injection, schedule: Q04DX003 (ip), vehicle: saline with Tween-80
[13] = dose: 400.0 mg/kg/injection, schedule: Q04DX003 (ip), vehicle: saline with Tween-80
[14] = dose: 100.0 mg/kg/injection, schedule: Q01DX001 (ip), vehicle: saline with Tween-80
[15] = dose: 200.0 mg/kg/injection, schedule: Q01DX001 (ip), vehicle: saline with Tween-80
[16] = dose: 400.0 mg/kg/injection, schedule: Q01DX001 (ip), vehicle: saline with Tween-80

Measured: T/C

CN(C)C(=S)[S][Sn]([c]1ccccc1)([c]1ccccc1)[c]1ccccc1
inactive: dose: 1.25 mg/kg/injection, schedule: Q01DX009 (ip), vehicle: saline with Tween-80 88 % of control | dose: 1.25 mg/kg/injection, schedule: Q04DX003 (ip), vehicle: saline with Tween-80 99 % of control | dose: 2.5 mg/kg/injection, schedule: Q01DX009 (ip), vehicle: saline with Tween-80 93 % of control | dose: 2.5 mg/kg/injection, schedule: Q04DX003 (ip), vehicle: saline with Tween-80 99 % of control | dose: 5.0 mg/kg/injection, schedule: Q01DX001 (ip), vehicle: steriod suspending solution 95 % of control | dose: 5.0 mg/kg/injection, schedule: Q01DX009 (ip), vehicle: Klucel (hydroxypropylcellulose) (HPC) 101 % of control | dose: 5.0 mg/kg/injection, schedule: Q01DX009 (ip), vehicle: saline with Tween-80 106 % of control | dose: 5.0 mg/kg/injection, schedule: Q04DX003 (ip), vehicle: Klucel (hydroxypropylcellulose) (HPC) 92 % of control | dose: 5.0 mg/kg/injection, schedule: Q04DX003 (ip), vehicle: saline with Tween-80 98 % of control | dose: 10.0 mg/kg/injection, schedule: Q01DX001 (ip), vehicle: steriod suspending solution 101 % of control | dose: 10.0 mg/kg/injection, schedule: Q01DX009 (ip), vehicle: Klucel (hydroxypropylcellulose) (HPC) 92 % of control | dose: 10.0 mg/kg/injection, schedule: Q04DX003 (ip), vehicle: Klucel (hydroxypropylcellulose) (HPC) 97 % of control | dose: 20.0 mg/kg/injection, schedule: Q01DX009 (ip), vehicle: Klucel (hydroxypropylcellulose) (HPC) 103 % of control | dose: 20.0 mg/kg/injection, schedule: Q04DX003 (ip), vehicle: Klucel (hydroxypropylcellulose) (HPC) 91 % of control | dose: 40.0 mg/kg/injection, schedule: Q01DX001 (ip), vehicle: steriod suspending solution 92 % of control

O=C1C2=C(c3ccccc31)C1c3ccccc3C(=O)C1(c1ccccc1)c1ccccc12 (stereo unspecified)
inactive: [1] 105 % of control | [2] 97 % of control | [3] 92 % of control

CCCCCCCCCCCCCCCCCCSC(=N)N
inactive: dose: 12.5 mg/kg/injection, schedule: Q01DX009 (ip), vehicle: saline with Tween-80 101 % of control | dose: 25.0 mg/kg/injection, schedule: Q01DX009 (ip), vehicle: saline with Tween-80 98 % of control | [4] 95 % of control | dose: 100.0 mg/kg/injection, schedule: Q01DX009 (ip), vehicle: saline with Tween-80 100 % of control

COc1cccc(NC(=S)Nc2ccc(O)cc2)c1
inactive: [5] 99 % of control | [6] 101 % of control | [7] 104 % of control

N#C/C(=C\c1ccccc1)C(=O)Nc1ccccc1
inactive: [8] 94 % of control | [9] 92 % of control | [10] 92 % of control

CCCCCCCCCCCCCCCC(=O)OCc1cc(=O)c(O)co1
inactive: dose: 100.0 mg/kg/injection, schedule: Q01DX009 (ip), vehicle: Klucel (hydroxypropylcellulose) (HPC) 95 % of control | [8] 91 % of control | dose: 200.0 mg/kg/injection, schedule: Q01DX009 (ip), vehicle: Klucel (hydroxypropylcellulose) (HPC) 101 % of control | [9] 94 % of control | dose: 400.0 mg/kg/injection, schedule: Q01DX009 (ip), vehicle: Klucel (hydroxypropylcellulose) (HPC) 97 % of control | [10] 94 % of control

NC(CNC(=O)OCc1ccccc1)=NCC(=O)O
inactive: dose: 25.0 mg/kg/injection, schedule: Q04DX003 (ip), vehicle: saline with Tween-80 94 % of control | dose: 50.0 mg/kg/injection, schedule: Q04DX003 (ip), vehicle: saline with Tween-80 89 % of control | [11] 89 % of control and 92 % of control

CCCCC1=C(C)C(=O)OC1=O
inactive: [11] 95 % of control | [12] 95 % of control | [13] 103 % of control

CCOC(CN(C(C)=O)C1(c2ccc(OC)c(OC)c2)C(=O)c2ccccc2C1=O)OCC
inactive: dose: 100.0 mg/kg/injection, schedule: Q01DX001 (ip), vehicle: Klucel (hydroxypropylcellulose) (HPC) 110 % of control | dose: 200.0 mg/kg/injection, schedule: Q01DX001 (ip), vehicle: Klucel (hydroxypropylcellulose) (HPC) 105 % of control | dose: 400.0 mg/kg/injection, schedule: Q01DX001 (ip), vehicle: Klucel (hydroxypropylcellulose) (HPC) 98 % of control

CCOC(=O)C(C#N)C(=N)C1CC(C)(C)OC1=O (stereo unspecified)
inactive: dose: 75.0 mg/kg/injection, schedule: Q01DX001 (ip), vehicle: other 101 % of control | dose: 150.0 mg/kg/injection, schedule: Q01DX001 (ip), vehicle: other 106 % of control

O=c1ccc([N+](=O)[O-])c[nH]1.[Ag]
inactive: dose: 6.25 mg/kg/injection, schedule: Q01DX009 (ip), vehicle: Klucel (hydroxypropylcellulose) (HPC) 86 % of control | dose: 12.5 mg/kg/injection, schedule: Q01DX009 (ip), vehicle: Klucel (hydroxypropylcellulose) (HPC) 86 % of control | dose: 12.5 mg/kg/injection, schedule: Q04DX003 (ip), vehicle: Klucel (hydroxypropylcellulose) (HPC) 88 % of control | dose: 25.0 mg/kg/injection, schedule: Q01DX009 (ip), vehicle: Klucel (hydroxypropylcellulose) (HPC) 95 % of control | dose: 25.0 mg/kg/injection, schedule: Q04DX003 (ip), vehicle: Klucel (hydroxypropylcellulose) (HPC) 99 % of control

Cc1ccc(CNC(=O)Nc2c(C)cccc2C)cc1C
inactive: [5] 102 % of control | [6] 108 % of control | [7] 97 % of control

O=C(CSc1cc(Cl)ccc1Cl)Nc1ccc(Cl)cc1Cl
inactive: dose: 100.0 mg/kg/injection, schedule: Q04DX003 (ip), vehicle: carboxymethylcellulose (CMC) 92 % of control | dose: 200.0 mg/kg/injection, schedule: Q04DX003 (ip), vehicle: carboxymethylcellulose (CMC) 95 % of control

C=Cn1nnnc1N
inactive: [14] 100 % of control | [15] 93 % of control | [16] 98 % of control

N#Cc1cnn(C(N)=O)c1N
inactive: [8] 100 % of control | [9] 95 % of control | [10] 100 % of control

Cc1cc(C)c(NC(=O)c2cc(C(=O)O)c(C(=O)Nc3c(C)cc(C)cc3C)cc2C(=O)O)c(C)c1
inactive: [4] 119 % of control and 91 % of control | [14] 104 % of control | dose: 100.0 mg/kg/injection, schedule: Q04DX002 (ip), vehicle: saline with Tween-80 104 % of control and 110 % of control | [11] 107 % of control | [15] 98 % of control | dose: 200.0 mg/kg/injection, schedule: Q04DX002 (ip), vehicle: saline with Tween-80 94 % of control and 113 % of control | [12] 100 % of control | [16] 102 % of control | dose: 400.0 mg/kg/injection, schedule: Q01DX009 (ip), vehicle: saline with Tween-80 87 % of control and 89 % of control | dose: 400.0 mg/kg/injection, schedule: Q04DX002 (ip), vehicle: saline with Tween-80 100 % of control | [13] 96 % of control

O=S(=O)(c1ccccc1)C1CC1c1ccc(Cl)cc1 (stereo unspecified)
inactive: [1] 97 % of control | dose: 100.0 mg/kg/injection, schedule: Q04DX003 (ip), vehicle: saline 104 % of control | [2] 92 % of control | dose: 200.0 mg/kg/injection, schedule: Q04DX003 (ip), vehicle: saline 96 % of control | [3] 98 % of control | dose: 400.0 mg/kg/injection, schedule: Q04DX003 (ip), vehicle: saline 96 % of control

Cc1ccc(CNC(=O)Nc2ccccc2Cl)c(C)c1
inactive: [5] 105 % of control | [6] 97 % of control | [7] 97 % of control
